Like-named read-outs stand apart in the source and are kept apart here.
Molecular target: T1, RNA editing ligase 1 (TbREL1) (Trypanosoma brucei, UniProt P86926)
T1 construct: gene REL1; recombinant full-length TbREL1, C-terminal TAP tag, Sf9 cells
T1 sequence (P86926 1-469): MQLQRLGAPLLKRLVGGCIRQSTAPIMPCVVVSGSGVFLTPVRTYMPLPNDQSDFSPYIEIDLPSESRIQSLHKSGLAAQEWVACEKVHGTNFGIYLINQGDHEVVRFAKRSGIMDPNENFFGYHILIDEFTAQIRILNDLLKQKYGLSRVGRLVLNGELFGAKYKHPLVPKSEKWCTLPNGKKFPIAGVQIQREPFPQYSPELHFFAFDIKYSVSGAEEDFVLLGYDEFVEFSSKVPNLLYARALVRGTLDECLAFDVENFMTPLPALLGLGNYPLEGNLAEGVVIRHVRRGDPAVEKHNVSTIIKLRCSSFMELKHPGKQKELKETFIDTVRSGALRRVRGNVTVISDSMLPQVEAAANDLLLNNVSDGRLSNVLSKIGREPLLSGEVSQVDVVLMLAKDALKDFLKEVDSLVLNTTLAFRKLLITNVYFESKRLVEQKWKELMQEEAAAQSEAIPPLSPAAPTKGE
Experiment: inhibition of TbREL1 adenylylation with [α-32P]ATP, SDS/PAGE and phosphorimaging, […] Triton X-100
Type: biochemical

O=C(Nc1ccc2c(O)c(/N=N/c3ccc4c(O)cc(S(=O)(=O)O)cc4c3)c(S(=O)(=O)O)cc2c1)c1ccccc1 [V1, (E)-7-benzamido-4-hydroxy-3-((5-hydroxy-7-sulfonaphthalen-2-yl)diazenyl)naphthalene-2-sulfonic acid]
IC50 (read-out: IC50): 2.16 ± 1.2 µM

Nc1ccc2c(O)c(/N=N/c3ccc4c(O)cc(S(=O)(=O)O)cc4c3)c(S(=O)(=O)O)cc2c1 [V2, (E)-7-amino-4-hydroxy-3-((5-hydroxy-7-sulfonaphthalen-2-yl)diazenyl)naphthalene-2-sulfonic acid]
IC50 (read-out: IC50): 1.53 ± 1.17 µM

O=S(=O)(O)c1cc(O)c2ccc(Nc3ccc4c(O)cc(S(=O)(=O)O)cc4c3)cc2c1 [V3, Di-J acid]
IC50 (read-out: IC50): 8.36 ± 1.71 µM

O=S(=O)(O)c1cc(/N=N/c2c(O)ccc3ccccc23)c(O)c(/N=N/c2c(O)ccc3cc(S(=O)(=O)O)ccc23)c1 [V4, Mordant Black 25]
IC50: 1.59 ± 1.1 µM

From article PMC2927429, “Novel Naphthalene-Based Inhibitors of Trypanosoma brucei RNA Editing Ligase 1” (PLoS Neglected Tropical Diseases, 2010)
